The values that follow come from patent US11168079B2, “Alkene compounds as farnesoid x receptor modulators” (BRISTOL-MYERS SQUIBB COMPANY, priority 2017, dated 2021).

For one test, the system named is Cyp7a1. As to the kind of experiment: Acute mouse in vivo assay (PK/PD): Cyp7a1 gene expression in liver. As to conditions: for Cyp7a1 (fold change@ 6 h relative to Vehicle): Mouse PD. The protocol:
(§1) Acute Mouse In Vivo Assay:
(§2) Male, C57BL6/NTac mice, weighing 25-28 g, are purchased from Taconic Labs (Hudson, N.Y.) and maintained on Teklad Global 18% Protein Rodent Diet (Harlan Laboratories). After 1 week acclimation, mice are sorted into groups based upon body weight. Mice are administered a single oral dose of vehicle or experimental compound. Systemic compound exposure is evaluated in plasma derived from blood collected via the submandibular vein at 1 hour post-dose, and at study termination (6 h). At study termination, the animals are euthanized and rapidly dissected. The medial lobe of the liver is divided, with one half being homogenized and analyzed for compound exposure, and the other half saved in RNAlater (Thermo-Fisher Scientific). The ileum is also dissected and preserved in RNAlater. Tissue samples in RNAlater are homogenized with MP Biomedicals' beads. RNA is extracted using the MagMax-96 Total RNA Isolation kit (Thermo-Fisher Scientific) according to the manufacturer's protocol. RNA Concentration is determined with the Nano-Drop 8000 Spectrophotometer (Thermo Fisher). […] Mouse genes analyzed include Nr0b2 (which encodes the small heterodimer partner, SHP), Abcb11 (which encodes the bile salt excretion pump, BSEP), Cyp7a1, & Cyp8b1 in liver, and Fgf15, Fabp6 (which encodes ileal bile acid binding protein, I-BABP), Slc51a (which encodes organic solute transporter alpha subunit, OSTA), and Slc51 b (which encodes organic solute transporter beta subunit, OSTB) in the ileum. The statistical significant changes in FGF15 gene expression are expressed as fold increase and CYP7A1 expression as a percent reduction relative to vehicle control. […]
(§3) Male, C57BL6/NTac mice, weighing 25-28 g, are purchased from Taconic Labs (Hudson, N.Y.) and maintained on Teklad Global 18% Protein Rodent Diet (Harlan Laboratories). […] Systemic compound exposure is evaluated in plasma derived from blood collected via the submandibular vein at 1 hour post-dose, and at study termination (6 h). […] RNA Concentration is determined with the Nano-Drop 8000 Spectrophotometer (Thermo Fisher). […]

A further test relates to Fgf15. As to the kind of experiment: Acute mouse in vivo assay (PK/PD): Fgf15 gene expression in ileum. Particulars: for Fgf15 (fold change@ 6 h relative to Vehicle): Mouse PD. The protocol:
as §1, §2, §3

The target of the next test is T1, human FXR (Homo sapiens, UniProt Q96RI1).
T1 sequence (Q96RI1 262-486 limits assumed): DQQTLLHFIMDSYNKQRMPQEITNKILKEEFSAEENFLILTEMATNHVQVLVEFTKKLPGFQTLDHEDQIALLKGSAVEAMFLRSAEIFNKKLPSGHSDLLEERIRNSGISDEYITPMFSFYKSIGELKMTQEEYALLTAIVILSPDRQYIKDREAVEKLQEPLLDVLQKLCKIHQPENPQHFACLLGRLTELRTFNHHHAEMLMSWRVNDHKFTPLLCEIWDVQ
The test is described as follows: transient human FXR/Gal4-luciferase reporter assay (HLE GAL-FXR). As to conditions: FXR EC50 (nM), Gal4-hFXR fusion reporter, HEK293 cells; Table 1. On the technique in general: Reporter assays use an easily measured gene product as a stand-in for the process of interest.

As to `O=C(O)c1cc(F)c2nc(N3CCC(/C=C/c4c(-c5c(Cl)cccc5Cl)noc4C4CC4)CC3)sc2c1` [Example 14], the “Mouse in vivo Cyp7a1” value in the test with Cyp7a1 (30 mg/kg, @ 6 h, single oral dose, percent reduction relative to vehicle control) is on record as −96%. Besides, the “Mouse in vivo FgF15” value in the test with Fgf15 (30 mg/kg, @ 6 h, single oral dose, fold increase relative to vehicle control) was 10 x.
As usually defined, the EC50 is the concentration needed to bring the measured effect to its halfway point. The low end stands for higher potency in that assay, the high end for lower potency in that assay. Compound `O=C(O)c1ncc(N2CCC(/C=C/c3c(-c4c(Cl)cccc4Cl)noc3C3CC3)CC2)cn1` [Example 27] gave an EC50 on human FXR of 2330 nM. Moreover, the “Cyp7a1 (fold change@ 6 h relative to Vehicle)” value in the test on Cyp7a1 (dose 30 mg/kg) was 0.10. For the same compound, in the test with Fgf15 (dose 30 mg/kg), the “Fgf15 (fold change@ 6 h relative to Vehicle)” value came to 2.8.
Consider `O=C(O)c1cc2ccc(N3CCC(/C=C/c4c(-c5c(Cl)cncc5Cl)noc4C4CC4)CC3)cc2cn1` [Example 101], for which the EC50 on human FXR is 47 nM. Further, the “Cyp7a1 (fold change@ 6 h relative to Vehicle)” value in the test on Cyp7a1 (dose 3 mg/kg) is 0.06. Besides, the “Fgf15 (fold change@ 6 h relative to Vehicle)” value in the test with Fgf15 (dose 3 mg/kg) was determined as 21.
For the compound `O=C(O)c1cccc(-c2nnc(N3CC4C(/C=C/c5c(-c6c(Cl)cncc6Cl)noc5C5CC5)C4C3)o2)c1` (centres unmarked) [Example 218], a half-maximal effect on human FXR (EC50) was put at 1600 nM.
The same measure, in the same setting: the result for `COc1cc(C(=O)O)cc(-c2ccc(N3CC(/C=C/c4c(-c5c(Cl)cncc5Cl)noc4C4CC4)C3)cc2)c1` [Example 219] reads 117 nM.
The compound `O=C(O)c1cnn(-c2ccc(N3CC(/C=C/c4c(-c5c(Cl)cncc5Cl)noc4C4CC4)C3)cc2)c1` [Example 220] showed an EC50 at human FXR of 107 nM.
The same measure, in the same setting: the same measure for `COc1cc(C(=O)O)cc(-c2ccc(N3CC(/C=C/c4c(-c5ccccc5C(F)(F)F)noc4C4CC4)C3)cn2)c1` [Example 221]: 56 nM; for `COc1cc(C(=O)O)cc(-c2ccc(N3CC(/C=C/c4c(-c5ccccc5C(F)(F)F)noc4C4CC4)C3)nc2)c1` [Example 222]: 34 nM.
Consider `COc1cc(C(=O)O)cc(-c2nnc(N3CC4C(/C=C/c5c(-c6c(Cl)cncc6Cl)noc5C5CC5)C4C3)s2)c1` (centres unmarked) [Example 223], for which the EC50 on human FXR was 1400 nM.
On the same count and under the same terms, the result for `O=C(O)c1cc(-c2ccc(N3CC(/C=C/c4c(-c5c(Cl)cncc5Cl)noc4C4CC4)C3)nc2)cc(C(F)(F)F)c1` [Example 224] reads 166 nM; that for `O=C(O)c1cc(-c2ccc(N3CC(/C=C/c4c(-c5ccccc5C(F)(F)F)noc4C4CC4)C3)nc2)cc(C(F)(F)F)c1` [Example 225], 6 nM; that for `O=C(O)c1cc(F)cc(-c2ccc(N3CC(/C=C/c4c(-c5ccccc5C(F)(F)F)noc4C4CC4)C3)nc2)c1` [Example 226], 14 nM.
